Reference: ChEMBL document CHEMBL1131985, “9-[(2'S,3'S)-3'-formyl-2',3'-dihydroxypropyl]adenine: a facile affinity-labeling probe of human S-adenosyl-L-homocysteine hydrolase” (Bioorg Med Chem Lett, 1999)

Columns and labels:
[1] = target: T1, Adenosylhomocysteinase (Homo sapiens, UniProt P23526); test: Affinity and reactivity of an affinity-labeling reagent, was assessed from the inactivation constant value
Target sequence in this assay (P23526 2-432 limits assumed): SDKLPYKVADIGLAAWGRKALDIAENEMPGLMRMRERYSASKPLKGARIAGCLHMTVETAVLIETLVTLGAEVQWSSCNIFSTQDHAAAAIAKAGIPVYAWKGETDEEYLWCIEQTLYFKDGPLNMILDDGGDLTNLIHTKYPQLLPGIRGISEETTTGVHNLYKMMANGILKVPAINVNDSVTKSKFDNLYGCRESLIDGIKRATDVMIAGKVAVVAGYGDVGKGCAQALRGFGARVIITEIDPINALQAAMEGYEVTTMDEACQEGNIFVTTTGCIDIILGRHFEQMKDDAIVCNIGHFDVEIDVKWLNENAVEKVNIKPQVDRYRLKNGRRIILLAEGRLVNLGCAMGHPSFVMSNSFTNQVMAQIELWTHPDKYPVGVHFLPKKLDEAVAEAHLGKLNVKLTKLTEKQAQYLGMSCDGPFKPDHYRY

[2] = target: T1, Adenosylhomocysteinase; test: Affinity and reactivity of an affinity-labeling reagent, was assessed from the inhibitory constant value
Target sequence in this assay (P23526 whole entry): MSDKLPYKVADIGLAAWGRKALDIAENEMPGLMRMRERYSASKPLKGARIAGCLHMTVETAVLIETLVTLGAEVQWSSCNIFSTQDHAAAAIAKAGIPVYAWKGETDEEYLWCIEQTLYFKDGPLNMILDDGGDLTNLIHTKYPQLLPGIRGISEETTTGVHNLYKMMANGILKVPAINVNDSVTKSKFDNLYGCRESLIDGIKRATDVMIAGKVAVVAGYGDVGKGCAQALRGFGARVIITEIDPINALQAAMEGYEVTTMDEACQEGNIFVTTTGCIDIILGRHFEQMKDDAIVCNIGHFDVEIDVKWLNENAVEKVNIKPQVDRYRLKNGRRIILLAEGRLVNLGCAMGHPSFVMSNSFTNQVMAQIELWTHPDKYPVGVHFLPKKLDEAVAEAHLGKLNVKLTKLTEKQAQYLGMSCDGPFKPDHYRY

[3] = target: T1, Adenosylhomocysteinase; test: Concentration with maximum apparent affinity (Kapp) for S-adenosyl-l-homocysteine (SAH) hydrolase was reported
Target sequence in this assay (P23526 2-432 limits assumed): as the sequence (P23526 2-432 limits assumed) above

Nc1ncnc2c1ncn2C[C@H](O)[C@H](O)C=O
K inact [1]: 0.09 min⁻¹
Ki [2]: 8.8 µM
K app [3]: 100 µM
